In patent publication US20190017017A1, “USE OF VASCULAR CELLS TO CREATE THE CONVENTIONAL OUTFLOW TRACT” (THE RESEARCH FOUNDATION FOR THE STATE UNIVERSITY OF NEW YORK, priority 2016, published 2019):

Assays:
HTM cells = experiment: Outflow facility of porous scaffolds bearing cultured HTM cells (perfusion); assay type: cell-based, human; conditions: FIG. 15
From the text: TM cells and SC cell-like cells co-cultured on a porous scaffold in accordance with aspects of the present disclosure may serve as a system to model conventional outflow tract function, physiology, and pathophysiology. FIG. 13A is a diagrammatic representation of a testing apparatus for performing perfusion-related testing in accordance with aspects of the present disclosure. A syringe pump or other pressure source may feed into a holder for a porous scaffold, with TM and SC cell-like cells co-cultured thereupon, with pressure controlled and measured by a pressure transducer. The pressure across the porous scaffold and cells, and other aspects related to pressure such as through-flow, flow rate, resistance to flow, hydraulic conductivity, and other indicia of conventional outflow tract function may be measured. For example, fluids can be perfused across the co-culture-bearing scaffold and aspects of fluid mechanics measured as an indication of conventional outflow tract function. […] Aspects of membrane pressure, outflow dynamics, and cellular function can similarly be measured under different conditions known or hypothesized to replicate disease states, or lack thereof, or conditions known or believed to prevent, ameliorate, or cure disease or pathological states. In an example, fluid may be perfused across a porous scaffold bearing co-cultured TM and SC cell-like cells and effects of transmembrane pressure, flow rate, through-flow, resistance to flow, hydraulic conductivity, vacuole dynamics, pore formation, or outflow facility of the co-cultured TM cells and SC cell-like cells may be measured. […] Other aspects of cellular physiology or function may similarly be measured, in response or relation to perfusion or otherwise. […]
A perfusion apparatus was used as described in publicly available literature and in accordance with the apparatus illustrated in FIG. 13. […] Vacuole/pore size were measured using the embedded LEO electron microscopy image software. […]

HTM/HMVEC constructs = experiment: qPCR and western blot of outflow pathway markers in co-cultured constructs exposed to pharmacologic agents; assay type: cell-based, human; conditions: qPCR and western blotting; FIGS. 14A-E
Procedure: Total RNA was extracted from samples using an RNeasy Plus Mini kit (Qiagen Inc., Valencia, Calif.). RNA concentrations were determined using a NanoDrop spectrophotometer. 50 ng of RNA per sample was used for each qPCR experiments. qPCR was carried out using TAQMAN RNA-TO-CT™ 1-Step Kit (Applied Biosystems, Carlsbad, Calif.) and performed on an AB StepOnePlus Real Time PCR system (Life Technologies, Carlsbad, Calif.) using primers for αB-crystallin, PECAM-1, fibulin-2, collagen type IV, fibronectin, laminin and GAPDH.
The temperature profile was as follows: 48° C. for 15 min (reverse transcription step), followed by an enzyme activation step of 95° C. for 10 min, 40 cycles of 15 s denaturation at 95° C. and 1 min anneal/extend at 60° C. Relative quantitation data analysis was performed using the comparative quantification method, ΔΔCt, with GAPDH as the endogenous reference. […]
FIGS. 14A-E show gene (left panels, qPCR) and protein (right, western blots) expression patterns of co-cultured HTM/HVEC constructs. HTM-HMVEC and HTM-HSC constructs were contacted with pharmacologic agents that regulate outflow and expression levels of various genes and proteins (α-SMA, collagen IV, fibronectin, myocillin) measured by qPCR and western blotting. […]

With TGFβ the “effect on outflow facility” value (HTM cells) was “inhibit” and the “response (expression of α-SMA, collagen IV, fibronectin, myocillin) of HTM-HMVEC constructs compared with HTM-HSC constructs” value (HTM/HMVEC constructs) was “responds similar”.
For `CC(=O)OCC(=O)[C@@]1(O)CC[C@H]2[C@@H]3CCC4=CC(=O)C=C[C@]4(C)[C@H]3C(=O)C[C@@]21C` [prednisone acetate], the “effect on outflow facility” value (HTM cells) was “inhibit”.
In the case of `C[C@@H](N)[C@H]1CC[C@H](C(=O)Nc2ccncc2)CC1` [Y27632], the “effect on outflow facility” value (HTM cells) was “stimulate” and the “response (expression of α-SMA, collagen IV, fibronectin, myocillin) of HTM-HMVEC constructs compared with HTM-HSC constructs” value (HTM/HMVEC constructs) was “responds similar”.
